Assay results taken from EP4608400B1, “COMPOUND FOR TREATMENT OF PAIN” (Initiator Pharma A/S, priority 2022, dated 2024).
Structures can show the parent of a compound that is named as a salt.

Experiments:
[1] = tested on: intradermal capsaicin model; assay: Phase I crossover study, intradermal capsaicin model: pharmacodynamics; format: in vivo, human
Source text: Participants. The volunteers were males aged 18 to 55 years with a body mass index (BMI) of 18 to 30 kg/m2. They were healthy as determined by a responsible physician, based on a medical evaluation including medical history, physical examination, concomitant medication, vital signs, 12-lead ECG, and clinical laboratory evaluations. The participants must have been in good general health with a skin type compatible with the measures and without significant skin allergies, pigmentary disorders or any active dermatological conditions. […] The participants provided written informed consent, which included compliance with the requirements and restrictions listed in the consent form, including the use of a condom during the trial and for 3 months after their final dose of trial medication, if their partner was a woman of childbearing potential.
Clinical and laboratory data. Prior to and 15, 30, 60, 90 and 120 minutes after administration of capsaicin, measurements of pain, hyperalgesia, allodynia and AF were performed. At 2 hours post-capsaicin injection, subjects completed a quantitative sensory testing (QST) battery at two sites on the volar surface of each forearm. One site was the most recent capsaicin injection site, and the other was at an equivalent point on the opposite forearm. […] There was a minimum washout period of 5 days between treatment periods.
Reconstitution was performed by a Pharmacist at the clinical site prior to dosing.
(§1) In order to maintain the blind, a double dummy approach was used.
Subjects were randomised to receive a single administration of a treatment combination during each treatment period. All subjects received each treatment combination once only.
Evaluation methods: Pharmacodynamics was assessed through pain measurements (response to ID injection of capsaicin, measurement of pain using a visual analogue scale, area and pain score of hyperalgesia, area and pain score of allodynia, and AF) and the ID capsaicin model. Subjects also completed a QST battery at two sites on the volar surface of either forearm. The QST battery included the following tests: thermal detection and pain thresholds, mechanical detection and pain thresholds, stimulus/response functions, wind-up ratio and pressure pain threshold.
For measurement of pain, a visual analogue scale (VAS) was used. The VAS consisted of a 100 mm line, with 0 representing "no pain" and 100 representing "worst pain imaginable". Subjects were asked to mark the VAS using a single vertical stroke at the point they considered to appropriately reflect their level of pain from the injection of capsaicin (not general pain). A new VAS was provided for each time point and subjects were not allowed to see their previous VAS responses. The VAS was scored by measuring from the left-hand end of the scale to the point where the subject had marked the line, and the distance in mm was recorded.
Response to pain was also assessed by a numeric rating scale (NRS). For example, by using an 11-point numeric rating scale ranging from 0 ("no pain") to 10 ("worst possible pain") and asking the subject to rate their pain. A NRS scale of 0 to 100 was also used in some assesments.
The thermal tests were performed using a thermode probe (Medoc). Cold and warm detection thresholds were measured first, then cold pain and heat pain thresholds were determined. The mean threshold temperature of 3 consecutive measurements was calculated. All thresholds were obtained with ramped stimuli (1°C/sec) that were terminated when the subject pressed a button. For thermal detection thresholds the ramp back to baseline was 1°C/sec, while for thermal pain thresholds this ramp was chosen at maximum device capacity resulting in approximately a nominal 5°C/sec.
The mechanical detection threshold was measured with a standardised set of modified von Frey nylons that exerted forces upon bending between 0.25 and 512 mN graded by a factor of 2 (1 to 2 seconds contact time). […]

[2] = Phase I crossover study, intradermal capsaicin model: safety evaluation (TEAEs); format: in vivo, human; details: 300 mg pregabalin
Protocol: as §1
Safety was assessed through AE reporting, 12-lead ECG, vital signs, physical examinations and clinical laboratory evaluations. Pharmacokinetics was assessed by blood sampling.

[3] = biological target: T1, noradrenaline (NA) reuptake in synaptosomes (Rattus norvegicus, UniProt Q63380); details: hydrochloride; reported in US 9,133,184 B1; cited from earlier work
T1 construct: in synaptosomes as described in WO 97/16451 (NeuroSearch A/S); from tissue
T1 sequence (Q63380 1-617): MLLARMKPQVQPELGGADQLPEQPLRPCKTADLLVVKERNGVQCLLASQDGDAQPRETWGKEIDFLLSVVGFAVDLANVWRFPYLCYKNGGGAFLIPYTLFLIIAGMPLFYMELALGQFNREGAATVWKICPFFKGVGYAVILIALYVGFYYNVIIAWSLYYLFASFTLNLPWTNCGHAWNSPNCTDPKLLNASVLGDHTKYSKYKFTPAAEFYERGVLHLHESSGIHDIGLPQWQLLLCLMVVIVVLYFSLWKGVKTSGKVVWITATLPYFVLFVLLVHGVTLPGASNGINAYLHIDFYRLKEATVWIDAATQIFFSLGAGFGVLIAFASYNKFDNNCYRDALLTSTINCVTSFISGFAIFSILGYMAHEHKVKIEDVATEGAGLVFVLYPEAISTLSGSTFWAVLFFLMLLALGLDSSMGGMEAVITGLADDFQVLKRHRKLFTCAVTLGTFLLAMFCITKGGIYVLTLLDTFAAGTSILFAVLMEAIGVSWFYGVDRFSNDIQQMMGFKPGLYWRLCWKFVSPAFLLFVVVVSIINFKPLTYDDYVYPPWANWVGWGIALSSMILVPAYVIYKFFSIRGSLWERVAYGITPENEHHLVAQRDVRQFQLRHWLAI

[4] = biological target: T2, dopamine (DA) reuptake in synaptosomes (Rattus norvegicus, UniProt P23977); details: hydrochloride; reported in US 9,133,184 B1; cited from earlier work
T2 construct: in synaptosomes as described in WO 97/16451 (NeuroSearch A/S); from tissue
T2 sequence (P23977 whole entry): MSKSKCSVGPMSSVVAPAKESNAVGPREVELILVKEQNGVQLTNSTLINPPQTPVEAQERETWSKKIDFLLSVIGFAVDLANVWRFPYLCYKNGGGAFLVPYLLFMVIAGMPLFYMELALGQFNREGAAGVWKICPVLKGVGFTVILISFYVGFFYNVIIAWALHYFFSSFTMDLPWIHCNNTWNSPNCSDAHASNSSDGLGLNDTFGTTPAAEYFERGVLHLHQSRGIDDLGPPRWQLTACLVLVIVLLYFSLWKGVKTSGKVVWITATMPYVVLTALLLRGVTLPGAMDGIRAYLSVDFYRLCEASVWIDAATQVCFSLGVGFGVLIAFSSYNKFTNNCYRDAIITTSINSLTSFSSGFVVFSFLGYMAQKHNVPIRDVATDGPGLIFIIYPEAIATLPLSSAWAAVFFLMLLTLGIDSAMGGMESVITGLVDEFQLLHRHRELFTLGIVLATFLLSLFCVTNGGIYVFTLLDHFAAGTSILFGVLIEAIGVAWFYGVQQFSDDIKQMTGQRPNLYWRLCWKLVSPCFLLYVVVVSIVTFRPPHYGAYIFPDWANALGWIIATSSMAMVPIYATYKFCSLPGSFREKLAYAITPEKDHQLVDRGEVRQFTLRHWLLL

| SMILES | adjusted mean pain score of hyperalgesia compared to placebo ([1]; 5 mg and 10 mg IP2015, 300 mg pregabalin, all post-capsaicin injection timepoints) | average decrease in hyperalgesic area across all timepoints compared to placebo ([1]; 300 mg pregabalin) [cm^2] | Pain Score of Brush-evoked Allodynia Using an NRS, Adjusted Mean (MMRM) ([1]; 300 mg pregabalin capsule, overall, all timepoints, N=24, placebo 2.0) | Subjective Rating of Pain, Adjusted Mean (MMRM) ([1]; 300 mg pregabalin capsule, overall, all timepoints, N=24, placebo 17.1) [mm] | decrease of subjective rating of pain compared to placebo ([1]; 300 mg pregabalin, 15 min post capsaicin) [mm] | decrease of subjective rating of pain compared to placebo ([1]; 300 mg pregabalin, 30 min post capsaicin) [mm] | decrease of subjective rating of pain compared to placebo ([1]; 300 mg pregabalin, 60 min post capsaicin) [mm] | overall increase in warm detection threshold between test and control areas (QST) ([1]; 300 mg pregabalin, p = 0.063, post-hoc analysis) | incidence of TEAEs (share of subjects) [2] [%] | moderate TEAE dizziness [2] [subject] | moderate TEAE mood altered [2] [subject] | number of TEAEs reported [2] [events] | subjects reporting TEAEs [2] [subjects] | IC50 [3] [nM] | IC50 [4] [nM] |
| --- | --- | --- | --- | --- | --- | --- | --- | --- | --- | --- | --- | --- | --- | --- | --- |
| CC(C)C[C@H](CN)CC(=O)O [pregabalin, reference compound] | lower | 7.8 | 1.5 | 14.4 | 1.5 | 3.8 | 4.4 | close to significance | 79.2 | 1 | 1 | 28 | 19 |  |  |
| COc1cc2ccc(O[C@@H]3C[C@H]4CC[C@@H](C3)N4)cc2oc1=O [compound of formula (I) hydrochloride, exo-7-[(8-azabicyclo[3.2.1]octan-3-yl)oxy]-3-methoxy-chromen-2-one hydrochloride] |  |  |  |  |  |  |  |  |  |  |  |  |  | 3.8 | 70 |
